Laboratory results from patent publication US5543147A, “Crystalline modification of 2,4-dioxo-6-methyl-1,2,3,4-tetrahydropyrimidine, a method for the preparation thereof and a medicinal preparation based on it” (Leonidov; Nikolai B., priority 1994, dated 1996).
Like-named read-outs stand apart in the source and are kept apart here.

What was measured:
[1] = tested on: eyes; assay: safety of long-term subconjunctival inoculations (2-month toxicological experiment); type: in vivo, white rats and chinchilla rabbits
Experimental: The study on the safety of long-term subconjunctival inoculations of the claimed modification in comparison with the known form of the said compound was carried out in a 2-month-long toxicological experiment in 148 mature male and female white rats and 49 male and female chinchilla rabbits.
Male rats and rabbits were given subconjunctivally I drop each of 2%, 25% and 50% suspension of the claimed modification of the said compound into each eye once daily. The results obtained were compared with those in a group of male rats and rabbits given one drop of 2% suspension of the known form of the said compound into the eye. Besides, a 2% suspension of the claimed modification of the said compound was given to a group of female rats and rabbits which were compared with the control group. In a separate series of experiments in the same animals (rats, rabbits) carried out by the same schedule of a chronic experiment, the effect of the claimed pharmaceutical in the form of an eye ointment containing as the active substance the claimed modification of the said compound was determined. The results of this study confirm the data obtained in the studies of the effect of the claimed compound. Comparisons with the pharmaceutical containing the known form of the said compound gave analogous results.

[2] = acute toxicity; type: in vivo, random-bred white mice, rats, and chinchilla rabbits
Experimental: (§1) Trials of the toxicity of the claimed crystalline modification of the said compound were carried out comparing it with the known crystalline form of the said compound.
(§2) Investigations of the general toxic effect of the claimed crystalline modification of 2,4-dioxo-6-methyl-1,2,3,4-tetrahydropyrimidine and the known crystalline form of the said compound were carried out in 3 […] species (random-bred white mice, rats, and chinchilla rabbits).

[3] = rate of dissolution of the active substance (rotary basket); type: physicochemical; conditions: water for injections 1000 ml, 37±1° C, 50 rpm, 0.25 g, 0 to 45 min
Experimental: The rate of dissolution of the active substance is determined in a "rotary basket" type DT-D6 apparatus (Erweka Co, BRD) at a mixing rate of 50 rpm. The dissolving medium is water for injections in a volume of 1000 ml at a temperature of 37±1° C. The content of the active substance in the solution is determined spectrophotometrically in a spectrophotometr No. 75 (Perkin-Elmer Co) at a wave length of 259 nm. For comparison, the known crystalline form of the said compound is used under identical conditions. The parameter for comparison is the constant of dissolution rate based on the mean results of the compound transition into solution from the amount thereof used (0.25 g) in the time of 0 to 45 min. The water for injections is used as a control.

[4] = subacute toxicity; type: in vivo, random-bred white mice, rats, and chinchilla rabbits; conditions: subacute routes of inoculation
Experimental: as §1, §2

[5] = tested on: plane multilayer wounds; assay: wound-healing activity, plane multilayer wounds in rats; type: in vivo, random-bred white male rats; conditions: for Rate of healing at 7 days / Rate of healing at 10 days / Rate of healing at 15 days / Mean time of falling off of crusts / Mean time of healing / Speeding up of healing: claimed 0.25% solution, known 1% solution in 0.9% aqueous NaCl
Experimental: (§3) The tests were carried out in 2 groups of 41 random-bred white male rats weighing 200±10 g. The experimental model in the 1st group were linear wounds of 50 mm long inflicted on the backs of the rats. Depending on the crystalline form of the tested compound used the rats were divided into 3 series. The first series was control--the wounds were pricked once daily with 0.9% aqueous solution of sodium chloride (0.5 ml) for 3 days. In the 2nd series the wounds were pricked by the same method with 1% solution of the known crystalline form of the said compound in 0.9% aqueous solution of sodium chloride. In the 3rd series the wounds were pricked by the same method with 0.25% solution of the claimed compound in 0.9% aqueous solution of sodium chloride.
Plane multilayer wounds of 400 mm^2 in area inflicted on the backs of rats were an experimental model in the 2nd group of experiments. The animals were also divided into 3 series. Here, the pricking of the wound was done by the same schedule as in the 1st group. The parameters of the wound process in the time course at 7, 10 and 15 days after wound inflicting were assessed by the methods of tensiometry, planimetry and clinical observations. The time of falling off of crusts and complete healing of the wounds was determined. The rate of the wound area decrease (V) in the course of healing was calculated by the formula [formula] wherein So is the initial wound area, mm^2,
St the wound area on the day of measurement t, mm^2.
(§4) The results of trials of the wound-healing activity of the claimed and the known crystalline forms of the said compound were statistically treated with the confidence limit of 95%.

[6] = tested on: wounds; assay: preliminary experiments on the wound-healing effect; type: in vivo
[7] = tested on: linear wounds; assay: wound-healing activity, model of linear wounds in rats (scar strength); type: in vivo, random-bred white male rats; conditions: for Strength of the scar: wounds pricked once daily for 3 days; for Strength of the scar / Increase of the scar strength as compared with control: claimed 0.25% solution, known 1% solution in 0.9% aqueous NaCl
Experimental: as §3, §4

[8] = solubility of the crystalline powder; type: physicochemical
[9] = tested on: allergenic and immunotoxic properties; assay: studies of the allergenic and immunotoxic properties
[10] = prior-art description, cited from earlier work

Cc1cc(O)nc(O)n1 [claimed modification, 2,4-dioxo-6-methyl-1,2,3,4-tetrahydropyrimidine]
microscopic changes in the eye ([1]; large doses): lymphoid infiltrates were formed in the ciliary body, iris, and sometimes in the initial parts of the optic nerve, but these changes were reversible | macroscopic local inflammatory reactions of the eyes ([1]; long-term administration): no macroscopic local inflammatory reactions of the eyes | class of toxicity (acute toxicity) [2]: Vth class of toxicity (practically non-toxic compounds) | class of toxicity (acute toxicity, intraperitoneal route) ([2]; intraperitoneal): VI class of relatively harmless compounds | mean lethal dose ([2]; subconjunctival route): could not be established | constant of the dissolution rate K [3]: 0.025 min⁻¹ | cumulative effect [4]: weak | shortening of time of complete healing of plane wounds as compared with the control [5]: 26.2% | shortening of time of complete healing of plane wounds as compared with the known form of the compound ([5]; 0.25% vs 1% solution): 12% | Rate of healing at 7 days [5]: 61.6 ± 6.3% | Rate of healing at 10 days [5]: 89.0 ± 4.9% | Rate of healing at 15 days [5]: 95.4 ± 3.8% | Mean time of falling off of crusts [5]: 8.6 ± 0.7 days | Mean time of healing [5]: 17.7 ± 1.6 days | Speeding up of healing [5]: 26.2% | concentration of solution at which significant (comparable) wound-healing effect was manifested [6]: 0.25 % by weight | increase of rupture strength of linear wounds as compared with the control ([7]; 7 days): 90.4% | increase of rupture strength of linear wounds as compared with the known form of the compound ([7]; 7 days, 0.25% vs 1% solution): 43% | Strength of the scar ([7]; 7 days): 57.3 ± 9.0 g/mm^2 | Increase of the scar strength as compared with control [7]: 90.4 | solubility in chloroform ([8]; chloroform): practically insoluble | solubility in ethyl alcohol ([8]; ethyl alcohol): poorly soluble | solubility in ethyl ether ([8]; ethyl ether): practically insoluble | solubility in water ([8]; water): poorly soluble | formation of the tumor necrosis factor [9]: not to be conducive to the formation of the tumor necrosis factor | functional activity of the B-cell immunity [9]: no effect on the functional activity of the B-cell immunity | functional activity of the Te-cell immunity [9]: not to inhibit the functional activity of the Te-cell immunity | specific leukocyte lysis [9]: no specific leukocyte lysis | specific reaction of leukocyte agglomeration [9]: no specific reaction of leukocyte agglomeration | allergenic and immunotoxic properties ([9]; overall): no allergenic and immunotoxic properties

Cc1cc(O)nc(O)n1 [known form, 2,4-dioxo-6-methyl-1,2,3,4-tetrahydropyrimidine]
class of toxicity (acute toxicity) [2]: slightly higher toxicity, although they belong to the same group | constant of the dissolution rate K [3]: 0.18 min⁻¹ | solubility in chloroform ([10]; chloroform): insoluble | solubility in ether ([10]; ether): insoluble | solubility in ethyl alcohol ([10]; ethyl alcohol): poorly soluble | solubility in water ([10]; water): poorly soluble | Rate of healing at 7 days [5]: 57.5 ± 8.3% | Rate of healing at 10 days [5]: 80.2 ± 2.0% | Rate of healing at 15 days [5]: 90.2 ± 2.8% | Mean time of falling off of crusts [5]: 9.6 ± 0.5 days | Mean time of healing [5]: 18.4 ± 1.6 days | Speeding up of healing [5]: 23.3% | concentration of solution at which significant (comparable) wound-healing effect was manifested [6]: 1 % by weight | Strength of the scar ([7]; 7 days): 40.1 ± 5.0 g/mm^2 | Increase of the scar strength as compared with control [7]: 33.2
